Drawing on the SangsterLogP compilation, this text covers logD for 43 compounds.

This data set can be described thus: method code SF-AS, from PMID: 744242. The settings on record: pH 5.6.
For `NC(=O)Cn1nnc2ccccc21`, the logD – broadly, the decadic logarithm of the distribution of all forms, ionised or not, between an organic phase and buffer at a given pH – was -0.11.

`CCCn1nc2ccccc2n1`: the logD turned out to be 2.53.

For `OCCCn1nc2ccccc2n1`, the logD was found to be 1.4.

Compound `Cn1nc2ccccc2n1` gave a logD of 1.64.

Consider `OCCn1nnc2ccccc21`, for which the pH-dependent lipophilicity (logD) was found to be 0.5.

In turn, `CCCCCCn1nc2ccccc2n1` registered a pH-dependent lipophilicity (logD) of 4.24.

`CCn1nc2ccccc2n1`: the log distribution coefficient (logD) came to 2.1.

`OCCn1nc2ccccc2n1` had a logD of 0.92.

Take `CCOC(=O)CCCn1nc2ccccc2n1`: the logD was found to be 2.41.

`CCOC(=O)Cn1nc2ccccc2n1` showed a logD of 1.85.

In turn, `CC(C)n1nnc2ccccc21` showed a log distribution coefficient (logD) of 1.98.

As for `CCCCCn1nc2ccccc2n1`, the logD turned out to be 3.63.

With `CCCCC(C)n1nnc2ccccc21` (stereo not drawn), the pH-dependent lipophilicity (logD) worked out at 3.44.

Turning to `NC(=O)CCCCCn1nnc2ccccc21`, the log distribution coefficient (logD) was determined as 0.79.

`CCOC(=O)CCn1nnc2ccccc21` came in with a logD of 1.6.

In turn, `CCCCn1nnc2ccccc21` gave a pH-dependent lipophilicity (logD) of 2.57.

The compound `NC(=O)CCn1nc2ccccc2n1` gave a logD of 0.66.

For the compound `CCOC(=O)CCCn1nnc2ccccc21`, the pH-dependent lipophilicity (logD) worked out at 1.86.

The compound `CCC(C)n1nnc2ccccc21` (stereo not drawn) returned a logD of 2.31.

The compound `CCCC(C)n1nnc2ccccc21` (stereo not drawn) returned a pH-dependent lipophilicity (logD) of 2.95.

`CCC(C)n1nc2ccccc2n1` (stereo not drawn) registered a pH-dependent lipophilicity (logD) of 2.95.

`CCCCn1nc2ccccc2n1` showed a log distribution coefficient (logD) of 3.12.

`CCOC(=O)CCCCn1nc2ccccc2n1`: the logD is 2.85.

Turning to `NC(=O)CCCCn1nnc2ccccc21`, the logD amounted to 0.58.

`CCCCCn1nnc2ccccc21` gave a logD of 3.22.

In turn, `CC(C)n1nc2ccccc2n1` displayed a log distribution coefficient (logD) of 2.54.

Compound `Cn1nnc2ccccc21` registered a logD of 1.13.

The compound `CCn1nnc2ccccc21` registered a pH-dependent lipophilicity (logD) of 1.58.

`CCOC(=O)CCCCCn1nnc2ccccc21` had a pH-dependent lipophilicity (logD) of 2.68.

Turning to `NC(=O)CCCCCn1nc2ccccc2n1`, the logD was found to be 1.41.

Take `NC(=O)CCCn1nnc2ccccc21`: the logD was found to be 0.37.

Take `CCCCCCn1nnc2ccccc21`: the pH-dependent lipophilicity (logD) came to 3.7.

For `CCCCC(C)n1nc2ccccc2n1` (stereo not drawn), the logD turned out to be 3.78.

In turn, `CCCC(C)n1nc2ccccc2n1` (stereo not drawn) came in with a logD of 3.42.

On to `CCOC(=O)Cn1nnc2ccccc21`, for which the pH-dependent lipophilicity (logD) came out at 1.3.

Compound `NC(=O)Cn1nc2ccccc2n1` displayed a logD of 0.28.

`NC(=O)CCCCn1nc2ccccc2n1`: the pH-dependent lipophilicity (logD) worked out at 1.01.

`CCOC(=O)CCCCCn1nc2ccccc2n1`: the logD was 3.17.

For the compound `CCCn1nnc2ccccc21`, the log distribution coefficient (logD) was determined as 2.13.

`NC(=O)CCCn1nc2ccccc2n1` registered a logD of 0.78.

As for `CCOC(=O)CCn1nc2ccccc2n1`, the logD worked out at 2.12.

Compound `OCCCn1nnc2ccccc21` gave a log distribution coefficient (logD) of 0.91.

As for `CCOC(=O)CCCCn1nnc2ccccc21`, the logD was found to be 2.2.
